Assay results: US5698521A, “Native calcitonin mimetics” (ZymoGenetics, Inc., priority 1995, dated 1997)
Each block holds one compound with its values, some of them ahead of it. Where a SMILES comes first, the peptide text is derived from it. [ ]: non-standard residue; d: D form. ξ: configuration not given here. ξPro(4ξ-Me) = CC1CNC(C(=O)O)C1; ξIva = CCC(C)(N)C(=O)O; Aib = CC(C)(N)C(=O)O

Assays:
[1] = Solubility of isolated powders in organic solvents; assay type: physicochemical
[2] = system: osteoclasts in mouse calvariae; experiment: Calvaria histology (TRAP-stained osteoclast number and size); assay type: cell-based
Source text: To confirm the findings in the calvarial bone resorption assay employing calcium release from culture mouse calvariae, selected bones were fixed in 10% neutral buffered formalin and demineralized in 5% formic acid with 5% formalin. The bones were dehydrated through an ascending series of ethanol concentrations, infiltrated in glycol methacrylate, and embedded using a JB-4 embedding kit (PolySciences, Warrington, Pa.) (Liu and Kalu, J. Bone Miner. Res., 5:973-82, 1990). Cross sections of calvariae cut at 5 μm were obtained and stained for tartrate-resistant acid phosphatase (TRAP) activity and counterstained with methyl green and thionin for cell morphology (Liu and Kalu, J. Bone. Miner. Res. 1990, supra). Osteoclasts were identified by TRAP stain, multinucleation, large cell size, and irregular cell shape. The number of osteoclasts were counted from endocranial and ectocranial bone surfaces and expressed as number/mm perimeter. The size of all the osteoclasts counted was also measured using a Bone Morphometry program (Lui and Kalu, supra.; Bain et al., J. Done Miner. Res. 8:435-42, 1993). […] This PTH-induced increase was suppressed by treatment with human calcitonin.
Calcitonin mimetic compounds were evaluated in a similar fashion for their ability to suppress PTH-induced increases in osteoclast number and size. Cell toxicity (or death) was also evaluated morphologically. […]

[3] = system: PTH-Induced Bone Resorption in Mouse Calvariae; experiment: Calvarial assay: PTH-induced bone resorption (calcium release); assay type: cell-based; settings: 1 nM PTH 1-34, 72 hours, read-out: Inhibition of Ca++ Release EC50
Experimental: Calvaria from 4-day old neonatal CD-1 mice (pregnant mice received from Charles River Laboratories, Wilmington, Mass.) were trimmed with fine-tipped scissors to leave the parietal regions, including the sagittal suture. These trimmed bones were placed singly per well into 6-well cell culture cluster plates (Costar, Pleasanton, Calif.) with 1 ml/well of growth medium (DMEM, BioWhittaker, Walkersville, Md.) with 4.5 g/L glucose, 0.29 mg/ml L-glutamine, 1 mM sodium pyruvate, 15% heat-inactivated horse serum, and antibiotics (penicillin-G 50 μg/ml, streptomycin 50 μg/ml, and neomycin 100 μg/ml), and rocked gently (RedRocker™, model PR50-115V, Hoefer, San Francisco, Calif.) at 37° C. in a 5% CO2 humidified incubator for 24 hours preincubation.
Following incubation, medium was removed and replaced with 1.5 ml/well of growth medium containing 1 nM parathyroid hormone (PTH) 1-34 (Sigma) to stimulate bone resorption. For evaluation of the ability of calcitonin mimetics to inhibit PTH induced bone resorption, mimetic compounds in DMSO were added to the growth medium at concentrations ranging from 1-240 μg/ml (final assay concentration of DMSO less than or equal to 1%). In each experiment human calcitonin (0.02-20 nM, 0.2-2 nM preferred) was added to PTH treated bones as a positive control. […]

[4] = molecular target: T1, human calcitonin receptor (Homo sapiens, UniProt P30988); experiment: CRE-luciferase induction in Hollex-1 cells (BHK 570 expressing human calcitonin receptor and CRE-luciferase reporter); assay type: cell-based; settings: BHK 570 cells expressing human calcitonin receptor and CRE-luciferase reporter (Hollex-1)
T1 construct: expressed in transfected cells; host or cells: BHK 570 clone KZ10-20-48 (CRE-luciferase), clone Hollex-1
T1 sequence (P30988 25-474): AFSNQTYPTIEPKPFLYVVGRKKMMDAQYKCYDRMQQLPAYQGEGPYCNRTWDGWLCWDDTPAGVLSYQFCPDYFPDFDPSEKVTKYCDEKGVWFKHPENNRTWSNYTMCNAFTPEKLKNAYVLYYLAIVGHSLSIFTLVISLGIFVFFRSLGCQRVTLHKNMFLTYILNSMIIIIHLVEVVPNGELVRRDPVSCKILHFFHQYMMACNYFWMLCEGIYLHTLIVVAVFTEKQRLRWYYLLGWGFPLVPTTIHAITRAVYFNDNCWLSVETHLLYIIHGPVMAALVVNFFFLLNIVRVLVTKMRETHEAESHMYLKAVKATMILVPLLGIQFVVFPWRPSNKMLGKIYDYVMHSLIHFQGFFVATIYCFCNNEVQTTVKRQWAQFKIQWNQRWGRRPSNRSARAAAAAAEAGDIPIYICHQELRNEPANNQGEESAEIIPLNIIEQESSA

[5] = molecular target: hamster calcitonin receptor (Mesocricetus auratus, UniProt A0A3Q0D7K7); experiment: CRE-luciferase induction in Boris/KZ10-3 cells (calcitonin receptor positive)
[6] = system: KZ10-20-48/Zem 228 cells (calcitonin receptor negative); experiment: CRE-luciferase induction in calcitonin receptor negative line KZ10-20-48/Zem 228 (specificity control); assay type: cell-based, baby hamster
human glucagon receptor [7] = molecular target: T2, human glucagon receptor (Homo sapiens, UniProt P47871); experiment: cell-based
[8] = system: KZ10-20-48 cells (CRE-luciferase reporter); experiment: CRE-luciferase induction in parent reporter line BHK/KZ10-20-48; assay type: cell-based, baby hamster; settings: clone KZ10-20-48, 25 mM forskolin, 4 hours; range 15-25 fold
Experimental: Stable transfectants were selected by growth in Dulbecco's modified Eagle's medium (DMEM) supplemented with 10% heat inactivated fetal bovine serum (HI-FBS), 2 mM L-glutamine and 1 mM sodium pyruvate containing 250 nM methotrexate (MTX) for 10-14 days. Clones were isolated, grown to confluence in opaque white microtiter plates (Dynatech, Chantilly, Va.), then treated with […], which elevates cellular cAMP through direct activation of adenylate cyclase (Berkowitz and Gilman, Proc. Nat. Acad. Sci. USA 87:5258-62, 1990) for 4 hours at 37° C., 5% CO2 . Following incubation, cells were lysed and assayed for luciferase induction in a Labsystems Luminoskan microtiter luminometer (Labsystems Inc., Morton Grove, Ill.) using a Promega luciferase kit (El500, Promega Corp., Madison, Wis.), as described below.

[9] = system: human calcitonin receptor; experiment: CRE-luciferase induction in Hollex-1 cells (BHK 570 expressing human calcitonin receptor and CRE-luciferase reporter); assay type: cell-based; settings: Hollex-1 clone; read-out: forskolin EC50, CRE-luciferase induction
human glucagon receptor [10] = molecular target: T2, human glucagon receptor; settings: KZ10-20-48/pLJ6-4-25 clone
[11] = in acetonitrile, ethyl acetate, and chloroform
[12] = in methanol, ethanol, n-butanol and dimethyl sulfoxide

Sequence of hamster calcitonin receptor (A0A3Q0D7K7 entry or part of it): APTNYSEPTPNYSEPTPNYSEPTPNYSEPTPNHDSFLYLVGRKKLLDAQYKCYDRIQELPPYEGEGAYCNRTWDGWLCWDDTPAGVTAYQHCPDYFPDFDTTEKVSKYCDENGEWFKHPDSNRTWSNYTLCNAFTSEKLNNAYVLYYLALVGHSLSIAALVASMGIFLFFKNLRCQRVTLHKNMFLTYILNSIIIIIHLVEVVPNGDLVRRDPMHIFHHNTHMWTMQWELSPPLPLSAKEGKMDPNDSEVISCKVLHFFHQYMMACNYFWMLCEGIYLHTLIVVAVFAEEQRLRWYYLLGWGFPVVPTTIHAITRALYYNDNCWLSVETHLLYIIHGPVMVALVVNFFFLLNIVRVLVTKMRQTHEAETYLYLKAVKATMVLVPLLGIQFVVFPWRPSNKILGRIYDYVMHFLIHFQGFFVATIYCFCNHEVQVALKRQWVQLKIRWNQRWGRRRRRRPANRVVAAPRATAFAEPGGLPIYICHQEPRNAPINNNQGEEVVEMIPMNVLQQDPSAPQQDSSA
T2 sequence (P47871 26-477): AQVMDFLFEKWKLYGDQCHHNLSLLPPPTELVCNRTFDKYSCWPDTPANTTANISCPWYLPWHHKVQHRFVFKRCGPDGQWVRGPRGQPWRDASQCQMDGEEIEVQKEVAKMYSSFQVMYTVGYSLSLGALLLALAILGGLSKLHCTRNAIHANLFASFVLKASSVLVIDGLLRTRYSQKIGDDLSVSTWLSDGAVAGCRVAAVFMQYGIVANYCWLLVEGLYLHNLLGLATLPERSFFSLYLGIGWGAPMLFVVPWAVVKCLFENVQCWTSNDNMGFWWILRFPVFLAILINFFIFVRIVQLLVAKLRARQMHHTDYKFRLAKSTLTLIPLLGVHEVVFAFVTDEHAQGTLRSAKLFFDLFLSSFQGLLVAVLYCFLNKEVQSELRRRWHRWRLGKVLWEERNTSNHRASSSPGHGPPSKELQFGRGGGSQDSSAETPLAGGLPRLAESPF

solubility [1, 11]: slightly soluble
solubility ([1]; in hexane): insoluble
solubility [1, 12]: readily soluble
EC50 [3]: 33200 nM
EC50 [4]: 506 nM
Compound: CC[C@H](C)[C@H](NC(=O)C(C)(C)NC(=O)[C@H](CCC(N)=O)NC(=O)C(C)(CC)NC(=O)[C@H](Cc1c[nH]c2ccccc12)NC(C)=O)C(=O)N[C@H](C(=O)NC(C)(C)C(=O)N[C@@H](CC(C)C)C(=O)NC(C)(C)C(=O)N1CCC[C@H]1C(=O)N[C@@H](CCC(N)=O)C(=O)NC(C)(C)C(=O)N1CCC[C@H]1C(=O)NC(C)(C)C(=O)N1CC(C)CC1C(=O)N[C@@H](Cc1ccccc1)C(=O)NCC(=O)O)[C@@H](C)O (stereo partly drawn) [ZG 2807 A, Acetyl-Trp-Xaal-Gln-2-aminoisobutyric acid (Aib)-Ile-Thr-Aib-Leu-Aib-Pro-Gln-Aib-Pro-Aib-Xaa2-Phe-Gly] (Ac-W[ξIva]Q[Aib]IT[Aib]L[Aib]PQ[Aib]P[Aib][ξPro(4ξ-Me)]FG-OH)
Histology ([2]; PTH-treated mouse calvariae, the cell wraps over two lines: 'Inhibition of osteoclast size'): Inhibition of osteoclast

solubility [1, 11]: slightly soluble
solubility ([1]; in hexane): insoluble
solubility [1, 12]: readily soluble
EC50 [4]: 525 nM
Compound: CC[C@H](C)[C@H](NC(=O)C(C)(C)NC(=O)[C@H](CCC(N)=O)NC(=O)C(C)(CC)NC(=O)[C@H](Cc1c[nH]c2ccccc12)NC(C)=O)C(=O)N[C@H](C(=O)NC(C)(C)C(=O)N[C@@H](CC(C)C)C(=O)NC(C)(C)C(=O)N1CCC[C@H]1C(=O)N[C@@H](CCC(N)=O)C(=O)NC(C)(C)C(=O)N1CCC[C@H]1C(=O)NC(C)(C)C(=O)N1CC(C)CC1C(=O)N[C@@H](Cc1ccccc1)C(=O)O)[C@@H](C)O (stereo partly drawn) [ZG 2807 B, Acetyl-Trp-Xaal-Gln-Aib-Ile-Thr-Aib-Leu-Aib-Pro-Gln-Aib-Pro-Aib-Xaa2-Phe] (Ac-W[ξIva]Q[Aib]IT[Aib]L[Aib]PQ[Aib]P[Aib][ξPro(4ξ-Me)]F-OH)

Compound: C=C[C@@]1(C)CC(=O)[C@]2(O)[C@@]3(C)[C@@H](O)CCC(C)(C)[C@@H]3[C@H](O)[C@H](OC(C)=O)[C@@]2(C)O1 [forskolin]
EC50 [5]: 900 nM
induction of luciferase ([5]; Boris/KZ10-3 clone): 25 fold
EC50 ([6]; Mesocricetus auratus, range 0.5-1.5 μM): 600 nM
induction of CRE-luciferase ([6]; range 20-35 fold): 30 fold
EC50 (human glucagon receptor [7]): 2100 nM
induction of CRE-luciferase vs basal [8]: 20 fold
EC50 [9]: 1200 nM
induction of luciferase (human glucagon receptor [10]): 35 fold

Compound: parathyroid hormone (PTH) 1-34 (SVSEIQLMHNLGKHLNSMERVEWLRKKLQDVHNF; Parathyroid hormone; UniProt P01270 32-65, looked up, fragment) [PTH 1-34, stimulus of bone resorption in the calvarial assay, reference compound]
number and size of osteoclasts (histomorphometry) ([2]; cultured mouse calvariae, calcitonin tested against the PTH-induced increase): increases in the number and size of osteoclasts
